Where a SMILES comes first, the peptide text is derived from it. Where no end group is shown, it is not given here. [ ]: non-standard residue; d: D form. Cit = NC(=O)NCCC[C@H](N)C(=O)O
Columns and labels:
[1] = test system: B16 HHDII/iDP4 tumour cells; experiment: Tumour challenge, B16 HHDII/iDP4 in HHDII/DP4 mice; format: in vivo; details: immunised tumour bearing HHDII/DP4 mice
From the text: HHDII/DP4 mice were challenged with B16 tumour with IFNγ inducible DP4. Four days later the HHDII/DP4 mice were immunised with Cyk8 371-388 cit or Cyk8 371-388 wt peptide on days 4, 11 and 18. Overall survival (A), tumour volume (B) at day 29 and tumour volume throughout the study (C), post tumour implant are shown for unimmunised control mice and mice immunised with either Cyk8 371-388 cit peptide or Cyk8 371-388 wt peptide. Statistical differences between immunised and control mice were determined by Mantel-Cox test, p values are shown. The tumour volume medians and p values are shown as determined by Mann Whitney U test, n=10 in all group.
HHDII/DP4 mice were challenged with B16 tumour with IFNγ inducible DP4. Four days later the HHDII/DP4 mice were immunised with Cyk8 371-388 cit peptide on days 4, 11 and 18. Overall survival (A), tumour volume (B) at day 24 and tumour volume throughout the study (C), post tumour implant are shown for unimmunised control mice and mice immunised with Cyk8 101-120 cit peptide. Statistical differences between immunised and control mice were determined by Mantel-Cox test, p values are shown. The tumour volume medians and p values are shown as determined by Mann Whitney U test, n=10 in all group.
For tumour challenge experiments, mice were challenged with 1×10^5 B16 HHDII/iDP4 cells subcutaneously on the right flank […] before primary immunisation (unless stated otherwise) and then immunised as described above. Tumour growth was monitored at 3-4 days intervals and mice humanely euthanised once tumour reached ≥10 mm in diameter.
The effect of immunisation with Cyk8 371-388 (cit and wt) on the growth of the mouse B16 melanoma cell line transfected with IFNγ inducible human DP4 (iDP4) was assessed in HHDII/DP4 transgenic mice (FIG. 9A). […]
The effect of immunisation with Cyk8 101-120 cit on the growth of the mouse B16 melanoma cell line transfected with IFNγ inducible human DP4 (iDP4) was assessed in HHDII/DP4 transgenic mice (FIG. 10A). […]

[2] = test system: splenocytes of immunised HHDII/DP4 mice; experiment: Peptide titration (avidity of T cell response) by IFNγ ELISpot; format: cell-based, mouse; details: peptide titration 0.001 to 10 μg/ml
Protocol: Transgenic mouse strains expressing HHDII/DP4 and parental C57BL mice were used to screen for IFNγ responses to peptide (A and B respectively). Mice were immunised with peptide pools of up to 2-3 non-overlapping human Cyk8 citrullinated peptides over three weeks. Splenocytes were harvested 21 days after the initial dose was administered. Ex vivo responses to stimulation with human Cyk8 cit peptides was assessed by IFNγ ELISpot. Media only responses were used as a negative control. n≥3 symbol represents mean response for individual mice, line represents median value between mice. Statistical significance of peptide response was compared to media only responses for each pool and determined using ANOVA with Dunnett's post-hoc test * […], ** p<0.01, *** p<0.001, **** p<0.0001, only significant p values are shown. […]
ELISpot assays were performed using murine IFNγ capture and detection reagents according to the manufacturer's instructions (Mabtech, Sweden). […] After incubation, captured IFNγ was detected by a biotinylated anti-IFNγ antibody and developed with a streptavidin alkaline phosphatase and chromogenic substrate. […] Spots were analysed and counted using an automated plate reader (Cellular Technologies Ltd).
Significant IFNγ responses were detected to human Cyk8 citrullinated peptides in transgenic HHDII/DP4 mice (FIG. 2A) and C57BL/6 mice (FIG. 2B). […]

[3] = test system: HHDII/DP4 transgenic mice; experiment: Ex vivo IFNγ ELISpot on splenocytes of peptide-immunised HHDII/DP4 mice; format: in vivo, mouse; details: for IFNγ responses detected in immunised mice: 25 μg peptide s.c. with CpG/MPLA once a week for three weeks, ELISpot 7 days after third immunisation; for IFNγ response in the presence of the CD8 antibody / IFNγ response in the presence of the anti CD4 antibody: HHDII/DP4, blocking antibody 20 μg/mL; for cross-reactivity of the response to the wt version: HHDII/DP4 mice immunised with cit peptide; for IFNγ response to citrullinated peptide compared to media only: screening, HHDII/DP4 mice, 25 μg peptide with CpG/MPLA weekly for three weeks; for T cell responses in HLA-DP4 transgenic mice / reactivity to the unmodified wildtype sequence: summary statement
Protocol: The HHDII/HLA-DP4 transgenic strain of mouse as described in patent WO2013/017545 A1 (EMMA repository, France) and C57BL/6 mice (Charles River, UK) were used, aged between 8 and 12 weeks, and cared for by the staff at Nottingham Trent University. All work was carried out under a Home Office project licence. Peptides were dissolved in 10% dimethylformamide to 1 mg/mL and then emulsified (a series of dilutions) with the adjuvant CpG and MPLA 6 μg/mouse of each (Invivogen, UK). Peptides (25 μg/mouse) were injected subcutaneously at the base of the tail.
ELISpot assays were performed using murine IFNγ capture and detection reagents according to the manufacturer's instructions (Mabtech, Sweden). In brief, anti-IFNγ antibody was coated onto wells of a 96-well Immobilin-P plate. Synthetic peptides (at a variety of concentrations) and 5×10^5 per well splenocytes were added to the wells of the plate in triplicate. LPS at 5 μg/mL was used as a positive control. Peptide pulsed target cells were added where relevant at 5×10^4 per well in triplicate and plates incubated for 40 hours at 37° C. After incubation, captured IFNγ was detected by a biotinylated anti-IFNγ antibody and developed with a streptavidin alkaline phosphatase and chromogenic substrate. Lipopolysaccharide (LPS; 5 μg/mL) was used as a positive control. For blocking studies, anti-CD4 blocking antibody (RPA-T4) and anti-CD8 blocking antibody (2.43) from Bioxcell were used at 20 μg/mL. Spots were analysed and counted using an automated plate reader (Cellular Technologies Ltd).
HHDII/DP4 and C57BL/6 mice were immunised with human citrullinated peptides in combination with CpG/MPLA as an adjuvant. 25 μg of peptide was administered subcutaneously as a single immunisation given once a week for three weeks Mice were culled 7 days after the third immunisation, the immune response to each peptide was assessed by ex vivo IFNγ ELISpot (FIG. 2). We have previously shown that citrullinated peptides can induce responses in the transgenic DR4 mouse strain. Given that different mouse strains have different MHC repertoires, the transgenic strain HHDII/DP4 and non-transgenic C57BL/6 mice were used for screening.
To determine if the immune response to the Cyk8 peptides is specific to the citrullinated peptide and not the wild type (wt) version, HHDII/DP4 transgenic mice were immunised with Cyk8 101-120 cit, 133-151 cit, 217-236 cit, 371-388 cit, 381-399 cit or Cyk8 101 wt, 133-151 wt, 371-388 wt peptides. HHDII/DP4 mice received 25 μg peptide with CpG/MPLA subcutaneously once a week for three weeks. Mice were culled 7 days after the third immunisation, the immune response to each peptide was assessed by ex vivo ELISpot (FIGS. 3A and 3B).
To determine whether the response to Cyk8 8-26 cit, Cyk8 101-120 cit, Cyk8 133-151 cit, Cyk8 371-388 cit, Cyk8 381-399 cit is CD4 dependent HHDII/DP4 transgenic mice and C57BL/6 mice received 25 μg peptide subcutaneously in combination with CpG/MPLA as an adjuvant, once a week for three weeks (FIG. 6A HHDII/DP4, FIG. 6B C57BL/6). Mice were culled 7 days after the third immunisation, an ELISpot assay was performed in the presence of an anti CD4 or CD8 antibody. […]

Row | Compound | associated toxicity [1] | IFNγ responses detected in immunised mice [3] | cross-reactivity of the response to the wt version [3] | IFNγ response to citrullinated peptide compared to media only [3] | T cell responses in HLA-DP4 transgenic mice [3] | reactivity to the unmodified wildtype sequence [3] | other results
1 | CC[C@H](C)[C@H](NC(=O)[C@H](Cc1ccccc1)NC(=O)[C@H](CO)NC(=O)[C@H](C)NC(=O)[C@H](Cc1ccccc1)NC(=O)[C@@H](N)CCCCN)C(=O)N[C@@H](CC(=O)O)C(=O)N[C@@H](CCCCN)C(=O)N[C@H](C(=O)N[C@@H](CCCNC(N)=O)C(=O)N[C@@H](Cc1ccccc1)C(=O)N[C@@H](CC(C)C)C(=O)N[C@@H](CCC(=O)O)C(=O)N[C@@H](CCC(N)=O)C(=O)N[C@@H](CCC(N)=O)C(=O)N[C@@H](CC(N)=O)C(=O)N[C@@H](CCCCN)C(=O)N[C@@H](CCSC)C(=O)N[C@@H](CC(C)C)C(=O)N[C@@H](CCC(=O)O)C(=O)O)C(C)C [Cyk8 101-120 cit, KFASFIDKV-cit-FLEQQNKMLE] (H-KFASFIDKV[Cit]FLEQQNKMLE-OH) | no associated toxicity |  |  |  |  |  | 
2 | cit-SNMDNMFESYINNL-cit-cit-QL ([Cit]SNMDNMFESYINNL[Cit][Cit]QL) [Cyk8 133-151 cit, Cyk8 133-151, citrullinated at position 133, 148 and 149] |  | Moderate to high | no cross-reactivity | significant immune responses | potent T cell responses | minimal reactivity | log EC50 (avidity of T cell response) [2]: -6.0 to-6.5 M; IFNγ response in the presence of the CD8 antibody [3]: not significantly reduced; IFNγ response in the presence of the anti CD4 antibody [3]: not significantly reduced
3 | CC[C@H](C)[C@H](NC(=O)[C@H](CCC(=O)O)NC(=O)[C@@H](NC(=O)[C@H](CC(=O)O)NC(=O)[C@H](CC(C)C)NC(=O)[C@H](C)NC(=O)[C@H](CC(C)C)NC(=O)[C@H](CCCCN)NC(=O)[C@@H](NC(=O)[C@H](CC(N)=O)NC(=O)[C@H](CCSC)NC(=O)[C@H](CC(C)C)NC(=O)[C@H](CCC(=O)O)NC(=O)[C@H](CCC(N)=O)NC(=O)[C@H](Cc1ccc(O)cc1)NC(=O)[C@H](CCC(=O)O)NC(=O)[C@H](CCCNC(=N)N)NC(=O)[C@@H](N)CC(C)C)C(C)C)[C@@H](C)CC)C(=O)O [Cyk8 371-388 wt, LREYQELMNVKLALDIEI, reference compound] (H-LREYQELMNVKLALDIEI-OH) | no associated toxicity |  |  |  |  |  | 
4 | KLALDIEIATY-cit-KLLEGEE (KLALDIEIATY[Cit]KLLEGEE) [Cyk8 381-399 cit, Cyk8 381-399, citrullinated at position 392] |  | Moderate to high | no cross-reactivity | significant immune responses | potent T cell responses | minimal reactivity | IFNγ response in the presence of the CD8 antibody [3]: significantly reduced; IFNγ response in the presence of the anti CD4 antibody [3]: significantly reduced
5 | LTDEINFL-cit-QLYEEEI-cit-ELQ (LTDEINFL[Cit]QLYEEEI[Cit]ELQ) [Cyk8 217-236 cit, Cyk8 217-236, citrullinated at positions 225 and 233] |  | Moderate to high | no cross-reactivity | significant immune responses | potent T cell responses | minimal reactivity | log EC50 (avidity of T cell response) ([2]; unit not given): -5.0 to-5.9
6 | CC[C@H](C)[C@H](NC(=O)[C@H](CCC(=O)O)NC(=O)[C@@H](NC(=O)[C@H](CC(=O)O)NC(=O)[C@H](CC(C)C)NC(=O)[C@H](C)NC(=O)[C@H](CC(C)C)NC(=O)[C@H](CCCCN)NC(=O)[C@@H](NC(=O)[C@H](CC(N)=O)NC(=O)[C@H](CCSC)NC(=O)[C@H](CC(C)C)NC(=O)[C@H](CCC(=O)O)NC(=O)[C@H](CCC(N)=O)NC(=O)[C@H](Cc1ccc(O)cc1)NC(=O)[C@H](CCC(=O)O)NC(=O)[C@H](CCCNC(N)=O)NC(=O)[C@@H](N)CC(C)C)C(C)C)[C@@H](C)CC)C(=O)O [Cyk8 371-388 cit, L-cit-EYQELMNVKLALDIEI] (H-L[Cit]EYQELMNVKLALDIEI-OH) | no associated toxicity |  |  |  |  |  | 
7 | RSNMDNMFESYINNLRRQL (listed as Homo sapiens) [Cyk8 131-15 wt, wild type (unmodified) Cyk8 133-151 peptide, reference compound] |  | Low to moderate |  |  |  |  | 
8 | KFASFIDKVRFLEQQNKMLE (listed as Homo sapiens) [Cyk8 101-120 wt, wild type (unmodified) Cyk8 101-120 peptide, reference compound] |  | Low to moderate |  |  |  |  | 

From US20250269000A1, “ANTI-TUMOUR RESPONSES TO CYTOKERATINS” (SCANCELL LIMITED, priority 2020, published 2025)
